Reference: the NIST ThermoML archive (doi:10.1021/je400679k)

Assay: xn = mol fraction of the nth substance listed
Details: 101 kPa, Liquid, Vibrating tube method

CNCCCN [N-methyl-1,3-diaminopropane] + CCN(CC)CCO
mass density [kg/m3]
Details | x1 = 0.0999 | x1 = 0.2 | x1 = 0.3001 | x1 = 0.3997 | x1 = 0.5 | x1 = 0.5998 | x1 = 0.7001 | x1 = 0.8 | x1 = 0.8996 | x1 = 1
283.15 K | 892.458 | 890.44 | 888.023 | 885.377 | 882.338 | 878.902 | 874.969 | 870.601 | 866.062 | 860.459
293.15 K | 883.574 | 881.665 | 879.317 | 876.712 | 873.685 | 870.252 | 866.283 | 861.885 | 857.283 | 851.605
303.15 K | 874.574 | 872.785 | 870.463 | 867.945 | 864.94 | 861.519 | 857.522 | 853.099 | 848.439 | 842.69
313.15 K | 865.456 | 863.792 | 861.601 | 859.082 | 856.105 | 852.691 | 848.689 | 844.237 | 839.53 | 833.715
323.15 K | 856.219 | 854.692 | 852.583 | 850.12 | 847.171 | 843.77 | 839.765 | 835.289 | 830.547 | 824.673
333.15 K | 846.874 | 845.474 | 843.452 | 841.042 | 838.132 | 834.751 | 830.75 | 826.265 | 821.487 | 815.559
343.15 K | 837.416 | 836.147 | 834.206 | 831.853 | 828.978 | 825.629 | 821.629 | 817.142 | 812.342 | 806.37
353.15 K | 827.843 | 826.695 | 824.829 | 822.533 | 819.712 | 816.396 | 812.413 | 807.931 | 803.118 | 797.093
363.15 K | 818.122 | 817.116 | 815.306 | 813.074 | 810.325 | 807.063 | 803.095 | 798.611 | 793.772 | 787.723

CNCCCN [N-methyl-1,3-diaminopropane] + CN(C)CCO
mass density [kg/m3]
Details | x1 = 0.0998 | x1 = 0.2 | x1 = 0.3001 | x1 = 0.4 | x1 = 0.4997 | x1 = 0.5993 | x1 = 0.6999 | x1 = 0.799 | x1 = 0.9 | x1 = 1
283.15 K | 893.869 | 892.03 | 889.578 | 886.723 | 883.31 | 879.367 | 875.276 | 871.091 | 866.659 | 860.459
293.15 K | 885.469 | 883.599 | 881.113 | 878.225 | 874.783 | 870.8 | 866.663 | 862.415 | 857.904 | 851.605
303.15 K | 876.968 | 875.071 | 872.551 | 869.634 | 866.166 | 862.148 | 857.97 | 853.666 | 849.087 | 842.69
313.15 K | 868.337 | 866.42 | 863.872 | 860.932 | 857.442 | 853.398 | 849.183 | 844.832 | 840.193 | 833.715
323.15 K | 859.574 | 857.639 | 855.069 | 852.112 | 848.606 | 844.543 | 840.3 | 835.912 | 831.218 | 824.673
333.15 K | 850.654 | 848.712 | 846.131 | 843.164 | 839.647 | 835.571 | 831.314 | 826.896 | 822.163 | 815.559
343.15 K | 841.562 | 839.622 | 837.042 | 834.073 | 830.555 | 826.477 | 822.212 | 817.78 | 813.022 | 806.37
353.15 K | 832.286 | 830.357 | 827.791 | 824.83 | 821.322 | 817.252 | 812.995 | 808.563 | 803.789 | 797.093
363.15 K | 822.801 | 820.903 | 818.354 | 815.413 | 811.93 | 807.876 | 803.636 | 799.198 | 794.432 | 787.723
